Source: PMC10095357, “Inhibition of Soluble Epoxide Hydrolase Activity by Components of Glycyrrhiza uralensis” (International Journal of Molecular Sciences, 2023)
“Also recorded” adds a separate entry of the source. Read-outs that look alike come from different tables or passages of the source.

Experiments:
[1] = molecular target: T1, Human recombinant sEH (Homo sapiens, UniProt P34913); assay: sEH assay (fluorescent substrate hydrolysis, inhibitory activity and IC50); assay type: biochemical; conditions: for inhibition at 100 µM: read-out: Inhibitory Activity at 100 μM (%); for IC50: sEH inhibition
T1 construct: purchased Cayman Chemical (Ann Arbor, MI, USA) 10011669
T1 sequence (P34913 1-555): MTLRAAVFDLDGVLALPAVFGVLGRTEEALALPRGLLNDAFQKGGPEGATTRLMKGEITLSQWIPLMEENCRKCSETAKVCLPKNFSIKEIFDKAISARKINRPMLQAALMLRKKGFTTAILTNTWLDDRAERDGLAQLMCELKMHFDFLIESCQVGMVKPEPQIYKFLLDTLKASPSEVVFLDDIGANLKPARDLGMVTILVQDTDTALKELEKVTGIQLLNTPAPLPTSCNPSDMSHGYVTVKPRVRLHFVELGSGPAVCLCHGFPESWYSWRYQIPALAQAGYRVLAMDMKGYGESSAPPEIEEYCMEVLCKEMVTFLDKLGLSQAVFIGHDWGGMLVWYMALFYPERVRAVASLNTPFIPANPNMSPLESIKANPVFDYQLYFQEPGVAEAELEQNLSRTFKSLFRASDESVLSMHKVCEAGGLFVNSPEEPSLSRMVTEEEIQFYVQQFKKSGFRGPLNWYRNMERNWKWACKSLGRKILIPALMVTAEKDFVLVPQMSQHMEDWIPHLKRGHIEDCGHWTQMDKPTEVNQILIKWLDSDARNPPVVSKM

[2] = molecular target: T1, Human recombinant sEH; assay: sEH enzyme kinetics (Lineweaver–Burk and Dixon plots); assay type: biochemical; conditions: for Ki: Dixon plot analysis; for Binding Mode: Lineweaver–Burk plot
[3] = compound at 100 μM, tested three times

| Molecule | sEH inhibitory effect (in words) [1] | inhibition at 100 µM [1] | IC50 [1] | Ki [2] | Binding Mode [2] | inhibition at 100 µM [1, 3] | sEH inhibitory effect (in words) ([1]; conclusion statement) | Inhibitory Activity at 100 μM (%) [1, 3] |
| --- | --- | --- | --- | --- | --- | --- | --- | --- |
| O=C1C[C@@H](c2ccc(O)cc2)Oc2cc(O)ccc21 [Compound 1, liquiritigenin] | moderate inhibitory effects | 61.5 ± 1.2% | 40.1 ± 1.2 µM | 63.1 µM | noncompetitive inhibitors; also recorded: non-competitive |  |  |  |
| O=C1C[C@@H](c2ccc(O[C@@H]3O[C@H](CO)[C@@H](O)[C@H](O)[C@H]3O)cc2)Oc2cc(O)ccc21 [Compound 2, liquiritin] |  |  |  |  |  | 46.8 ± 0.8% |  |  |
| O=C(/C=C/c1ccc(O)cc1)c1ccc(O)cc1O [Compound 4, isoliquiritigenin] |  |  | 17.6 ± 0.6 µM | 24.2 µM | Noncompetitive |  |  |  |
| O=C(/C=C/c1ccc(O[C@@H]2O[C@H](CO)[C@@H](O)[C@H](O)[C@H]2O)cc1)c1ccc(O)cc1O [Compound 5, isoliquiritin] |  |  | 25.8 ± 0.2 µM | 48.8 µM | Noncompetitive | 80.2 ± 0.3% |  |  |
| COc1cc(O)ccc1C(=O)/C=C/c1ccc(O)cc1 [Compound 7, 2′-methoxyisoliquiritigenin] |  |  | 16.2 ± 0.3 µM | 19.8 µM | competitive inhibitors | 85.1 ± 0.3% |  |  |
| COc1ccc(-c2coc3cc(O[C@@H]4O[C@H](CO)[C@@H](O)[C@H](O)[C@H]4O)ccc3c2=O)cc1 [Compound 8, ononin] |  |  | 35.7 ± 0.7 µM | 54.4 µM | competitive inhibitors | 60.7 ± 1.3% |  |  |
| COc1c(CC=C(C)C)c(O)cc2oc(=O)c3c4ccc(O)cc4oc3c12 [Compound 9, glycyrol] |  |  | 42.5 ± 1.5 µM | 41.1 µM | noncompetitive inhibitors; also recorded: non-competitive | 69.5 ± 0.5% |  |  |
| COc1c(CC=C(C)C)c(O)cc2oc(=O)c(-c3ccc(O)cc3O)cc12 [Compound 10, glycycoumarin] |  |  | 1.9 ± 0.2 µM | 2 µM | competitive inhibitors | > 100% | potent effect |  |
| CC(C)=CCc1cc(-c2coc3cc(O)c(CC=C(C)C)c(O)c3c2=O)cc(O)c1O [Compound 11, isoangustone A] |  |  | 85.7 ± 1.2 µM | 75.6 µM | noncompetitive inhibitors; also recorded: non-competitive | 68.4 ± 3.1% | moderate inhibitory effects |  |
| CC1(C)[C@@H](O[C@H]2O[C@H](C(=O)O)[C@@H](O)[C@H](O)[C@H]2O[C@@H]2O[C@H](C(=O)O)[C@@H](O)[C@H](O)[C@H]2O)CC[C@]2(C)[C@H]3C(=O)C=C4[C@@H]5C[C@@](C)(C(=O)O)CC[C@]5(C)CC[C@@]4(C)[C@]3(C)CC[C@@H]12 [Glycyrrhizin, reference compound] |  |  |  |  |  | 18.4% | lacked such an effect |  |
| isoliquiritin apioside [Compound 6] |  |  |  |  | Noncompetitive |  |  | 79.3 ± 1.4% |
| liquiritin apioside [Compound 3] |  |  |  |  | competitive inhibitors |  |  | 57.6 ± 1.1% |
